Test results reported in US8680065B2, “Oligonucleotides of human endogenous retrovirus 9 (ERV-9) long terminal repeat (LTR) and methods of use” (The United States of America, as represented by the …, priority 2008, dated 2014).

Key:
[1] = system: human primary cells (keratinocytes, lymphocytes, monocytes); assay: Proliferation of normal human primary cells, Example 3, summary; format: cell-based; conditions: 20 μg/ml, 48 hours
Procedure: (§1) To determine whether the inhibitory effect of ERV-9 U3 oligonucleotides is specific to cancer cells, human primary keratinocytes (FIG. 13), lymphocytes (FIG. 14), or monocytes (FIG. 15) were treated with ERV-9 U3 sense or antisense oligonucleotide and cell proliferation was evaluated. Cells (4×10^4) were transfected with ERV-9 U3 sense or antisense oligonucleotide (SEQ ID NOs: 1 and 2, respectively) formulated in LIPOFECTAMINE™ at a concentration of 20 μg/ml. GFP oligonucleotide was used as non-specific phosphorothioate oligonucleotide control. After 48 hours, cell proliferation was assessed by direct cell counting. Cell proliferation levels were expressed relative to GFP control.

HepG2 cells = assay: Cancer cell proliferation, oligonucleotide in combination with VP16, 48 hours; format: cell-based, human; conditions: oligonucleotide 15 μg/ml with VP16 30 ng/ml and 50 ng/ml, P<0.05
Procedure: (§2) FIG. 11 is a graph showing proliferation of HepG2 cells treated with ERV-9 U3 sense or antisense oligonucleotide (SEQ ID NOs: 1 and 2, respectively), in combination with VP16. Cells (4×10^4) were treated with oligonucleotide (15 μg/ml) alone or in combination with the concentrations of VP16 shown for 48 hours.
(§3) To test the effect of treating cancer cells with the combination of ERV-9 U3 oligonucleotide and VP16, six different cancer cell lines were analyzed: HT1080, (FIG. 7); MDA-231 (FIG. 8); K562 (FIG. 9); LNcaP (FIG. 10); HepG2 (FIG. 11); and MCF-7 (FIG. 12). Cells (4×10^4) were treated with 15 μg/ml ERV-9 U3 sense (SEQ ID NO: 1) or antisense (SEQ ID NO: 2) oligonucleotide alone or in combination with VP16 at a concentration of 30 ng/ml or 50 ng/ml. After 48 hours, cell proliferation was assessed by direct cell counting. Cell proliferation levels were expressed relative to GFP oligonucleotide control in the absence of VP16.

[2] = system: K562 cells (a myelogenous leukemia cell line); assay: Cancer cell proliferation, oligonucleotide in LIPOFECTAMINE, 48 hours, direct cell counting; format: cell-based, human; conditions: P<0.05
Procedure: FIG. 3 is a graph showing the effect of sense and antisense ERV-9 U3 oligonucleotides (SEQ ID NOs: 1 and 2, respectively) on proliferation of K562 cells (a myelogenous leukemia cell line). Cells (4×10^4) were treated with ERV-9 U3 sense or antisense oligonucleotide formulated in LIPOFECTAMINE™ at the concentrations shown for 48 hours.
To test the effect of the sense and antisense ERV-9 U3 oligonucleotides on proliferation of cancer cells, six different cancer cell lines were selected for transfection studies: HT1080, fibrosarcoma cells (FIG. 1); MDA-231, breast cancer cells (FIG. 2); K562, myelogenous leukemia cells (FIG. 3); LNcaP, prostate cancer cells (FIG. 4); HepG2, hepatocellular carcinoma cells (FIG. 5); and MCF-7, breast cancer cells (FIG. 6). Cells (4×10^4) were treated with ERV-9 U3 sense or antisense oligonucleotide formulated in LIPOFECTAMINE™ at an oligonucleotide concentration of 10, 20 or 30 μg/ml for 48 hours. Green fluorescent protein (GFP) sense oligonucleotide ([…]; SEQ ID NO: 3) was used as a control to measure the non-specific cytotoxicity of phosphorothioate-based oligonucleotides. Antisense oligonucleotides specific for Bcl-2 (G3139; TCTCCCAGCGTGCGCCAT; SEQ ID NO: 4), telomerase (GRN163; TAGGGTTAGACAA; SEQ ID NO: 5), and MDM2 ([…]; SEQ ID NO: 6) were also evaluated. […] After 48 hours of oligonucleotide treatment, cell proliferation was assessed by direct cell counting. Cell proliferation levels were expressed relative to cells transfected with 10 μg/ml GFP control oligonucleotide.

[3] = system: human primary lymphocytes; assay: Proliferation of normal human primary cells, 48 hours; format: cell-based; conditions: 20 μg/ml, P>0.05
Procedure: (§4) FIG. 14 is a graph showing the effect of ERV-9 U3 sense and antisense oligonucleotides (SEQ ID NOs: 1 and 2, respectively) on human primary lymphocytes. Cells (4×10^4) were transfected with ERV-9 U3 sense or antisense oligonucleotide formulated in LIPOFECTAMINE™ at a concentration of 20 μg/ml for 48 hours.
as §1

human primary monocytes = assay: as above; format: cell-based; conditions: 20 μg/ml, P>0.05
Procedure: as §4, with “15” for “14”, “monocytes.” for “lymphocytes.”
as §1

HT1080 cells = assay: Cancer cell proliferation, U3 and U5 oligonucleotides, 72 hours; format: cell-based, human; conditions: 20 μg/ml
Procedure: FIG. 16 is a graph showing the effect of sense and antisense ERV-9 U3 (SEQ ID NOs: 1, 2, 7, 8, 9, and 10) and U5 (SEQ ID NOs: 11 and 12) oligonucleotides on proliferation of HT1080 cells. Cells (4×10^4) were treated with oligonucleotide formulated in LIPOFECTAMINE™ at a concentration of 20 μg/ml for 72 hours. GFP sense oligonucleotide was used as a control to measure the non-specific cytotoxicity of phosphorothioate-based oligonucleotides. Antisense oligonucleotides G3139, GRN163, and MDM2 were also evaluated. Cell proliferation levels were expressed relative to cells transfected with GFP oligonucleotide. All U3 and U5 sense and antisense oligonucleotides inhibited cell proliferation to a greater extent that GFP control. In addition, with the exception of the U5 sense oligonucleotide, all U3 and U5 oligonucleotides inhibited cell proliferation better than the G3139, GRN163 and MDM2 antisense oligonucleotides.
HT1080 or MDA-231 cells (4×10^4 cells) were treated with ERV-9 LTR (U3 or U5) sense or antisense oligonucleotides formulated in LIPOFECTAMINE™ at a concentration of 20 μg/ml for 72 hours. GFP sense oligonucleotide was used as a control to measure the non-specific cytotoxicity of phosphorothioates-based oligonucleotides. Relative cell proliferation levels were expressed as percentage of GFP oligonucleotide transfected control. The results are shown in FIG. 16 (HT1080 cells) and FIG. 17 (MDA-231 cells).

LNcaP cells = assay: Cancer cell proliferation, oligonucleotide in combination with VP16, 48 hours; format: cell-based, human; conditions: oligonucleotide 15 μg/ml with VP16 30 ng/ml and 50 ng/ml
Procedure: as §2, with “10” for “11”, “LNcaP” for “HepG2”
as §3

[4] = oligonucleotide 10 μg/ml and 20 μg/ml

Row | Substance | cell proliferation of human primary cells relative to control GFP oligonucleotide [1] | cell proliferation of human primary cells relative to control GFP oligonucleotide ([1]; listed as ERV-9 U3 sense oligonucleotide) | cell proliferation relative to GFP oligonucleotide control (HepG2 cells) | cell proliferation relative to GFP oligonucleotide [2, 4] | cell proliferation relative to GFP oligonucleotide ([2]; oligonucleotide 30 μg/ml) | cell proliferation relative to control GFP oligonucleotide [3] | cell proliferation relative to control GFP oligonucleotide (human primary monocytes) | cell proliferation relative to GFP oligonucleotide transfected control (HT1080 cells) | cell proliferation relative to GFP oligonucleotide control (LNcaP cells) | cell proliferation of human primary cells relative to control GFP oligonucleotide ([1]; listed as ERV-9 U3 antisense oligonucleotide)
1 | U3S: ERV-9 LTR U3 sense oligonucleotide CTCAAGGTTTGTAAACACACCAATCAG, phosphorothioate internucleoside linkages at each position (all phosphorothioate, sugars by position and methylation of C not given here) [Oligo U3S] | neither U3 sense nor antisense oligonucleotides had an effect on the proliferation of human primary cells | did not significantly alter cell proliferation of human primary cells, relative to control GFP oligonucleotide | inhibited cell proliferation better than GFP control and G3139, GRN163 and MDM2 antisense oligonucleotides | inhibited cell proliferation better than GFP control oligonucleotide | inhibited proliferation better than GFP control and G3139, GRN163 and MDM2 antisense oligonucleotides | did not inhibit cell proliferation relative to control GFP oligonucleotide | did not inhibit cell proliferation relative to control GFP oligonucleotide | inhibited cell proliferation better than G3139, GRN163 and MDM2 oligonucleotides | inhibited cell proliferation better than GFP oligonucleotide | –
2 | U3AS: ERV-9 LTR U3 antisense oligonucleotide CTGATTGGTGTGTTTACAAACCTTGAG, phosphorothioate internucleoside linkages at each position (all phosphorothioate, sugars by position and methylation of C not given here) [Oligo U3AS] | neither U3 sense nor antisense oligonucleotides had an effect on the proliferation of human primary cells | – | inhibited cell proliferation better than GFP control and G3139, GRN163 and MDM2 antisense oligonucleotides | inhibited cell proliferation better than GFP control oligonucleotide | inhibited proliferation better than GFP control and G3139, GRN163 and MDM2 antisense oligonucleotides | did not inhibit cell proliferation relative to control GFP oligonucleotide | did not inhibit cell proliferation relative to control GFP oligonucleotide | inhibited cell proliferation better than G3139, GRN163 and MDM2 oligonucleotides | inhibited cell proliferation better than GFP oligonucleotide | did not significantly alter cell proliferation of human primary cells, relative to control GFP oligonucleotide
